According to PubChem BioAssay (NCI):
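Each compound was tested at five concentrations against cells in 96-well plates for 48 hours. GI50 marks 50% less growth. The concentration for full growth arrest is given as TGI.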

What was measured:
Test in all cases: inhibition of tumour cell growth, NCI panel, 48 h
SK-MEL-2 melanoma = test system: SK-MEL-2 melanoma
NCI-H522 lung = test system: NCI-H522 lung
HCT-15 colon = test system: HCT-15 colon
OVCAR-4 ovarian = test system: OVCAR-4 ovarian
ACHN renal = test system: ACHN renal
HOP-92 NSCLC = test system: HOP-92 NSCLC
SK-MEL-5 melanoma = test system: SK-MEL-5 melanoma
A549 NSCLC = test system: A549 NSCLC
PC-3 prostate = test system: PC-3 prostate
SR leukemia = test system: SR leukemia

Row | Structure (SMILES) | TGI (SK-MEL-2 melanoma) | TGI (NCI-H522 lung) | TGI (HCT-15 colon) | TGI (OVCAR-4 ovarian) | TGI (ACHN renal) | TGI (HOP-92 NSCLC) | TGI (SK-MEL-5 melanoma) | TGI (A549 NSCLC) | TGI (PC-3 prostate) | GI50 (OVCAR-4 ovarian) | GI50 (ACHN renal) | GI50 (SK-MEL-5 melanoma) | GI50 (PC-3 prostate) | TGI (SR leukemia)
1 | COc1cccc(C(=O)C#Cc2cnc(OC)nc2OC)c1 | 3.95 µM | 0.762 µM | 0.516 µM | 6.61 µM | 3.5 µM | 4.28 µM | 3.06 µM | 21.4 µM | 2.88 µM |  |  |  |  | 
2 | COc1cc(O)c2c(=O)c(OC)c(-c3ccc(OC)c(OC)c3)oc2c1 |  | 15 µM | > 100 µM | > 100 µM | > 100 µM |  | > 100 µM | > 100 µM | > 100 µM | 61.8 µM | > 100 µM | 82 µM | > 100 µM | 
3 | Cc1cc(NS(=O)(=O)c2ccc(NC(=O)c3cccc4c(Nc5ccc(S(N)(=O)=O)cc5)c5ccccc5nc34)cc2)no1 | > 100 µM | > 100 µM | > 100 µM | > 100 µM | > 100 µM |  |  |  |  |  |  |  |  | > 100 µM
4 | C=C(C)[C@@H]1CC[C@]2(C(=O)OC)CC[C@]3(C)[C@H](CC[C@@H]4[C@@]5(C)CC[C@H](O)C(C)(C)[C@@H]5CC[C@]43C)[C@@H]12 |  | 40.6 µM | 50.6 µM |  | 32.9 µM | 41.3 µM | 41.3 µM | 37.7 µM | 34.8 µM |  |  |  |  | > 100 µM
5 | O=c1[nH]c(Nc2nc3ccccc3[nH]2)nc(O)c1Cc1ccccc1 | > 100 µM | > 100 µM | > 100 µM | > 100 µM | > 100 µM | 63 µM | > 100 µM | > 100 µM | > 100 µM |  |  |  |  | > 100 µM
6 | CC(=O)OCC1OC(OCCCOP(=S)(OCCC#N)OCC2OC(n3ccc(N)nc3=O)C(OC(=O)c3ccccc3)C2OC(=O)c2ccccc2)C(OC(C)=O)C(OC(C)=O)C1OC(C)=O (centres undefined) | > 100 µM | > 100 µM | > 100 µM | > 100 µM | > 100 µM | > 100 µM | > 100 µM | > 100 µM | > 100 µM |  |  |  |  | > 100 µM
7 | CN(CCCNC(=O)c1cc(-c2ccccc2)nc2ccccc12)CCCNC(=O)c1cc(-c2ccccc2)nc2ccccc12 | 3.67 µM | 3.51 µM | 12.2 µM | 11.3 µM | 7.25 µM | 9.85 µM | 3.08 µM | 15.3 µM | 13 µM |  |  |  |  | 12.3 µM
8 | CCN(CCN(CC)C(=O)Nc1ccccc1)C(=O)Nc1ccccc1 | > 100 µM | > 100 µM | > 100 µM |  | > 100 µM | > 100 µM | > 100 µM | > 100 µM | > 100 µM |  |  |  |  | > 100 µM
9 | O=C1Cc2c([nH]c3ccc(C(=O)O)cc23)-c2ccccc2N1 | > 100 µM |  | > 100 µM | > 100 µM | > 100 µM | > 100 µM |  | > 100 µM | > 100 µM |  |  |  |  | > 100 µM
10 | O=NN(CCF)C(=O)NC1CCSCC1 | > 100 µM | > 100 µM | > 100 µM | > 100 µM |  | > 100 µM | > 100 µM | > 100 µM |  |  |  |  |  | 
11 | CCC1C(c2ccccc2O)c2cc3c(cc2OC1N1CCOCC1)OCO3 (centres undefined) | 30.8 µM | 28 µM | 21.4 µM |  | 26 µM | 27.6 µM | 30.5 µM | 29.9 µM | 26 µM |  |  |  |  | 30.8 µM
12 | NC(Cc1ccc(S(=O)(=O)O)cc1)C(=O)NC(Cc1ccc(S(=O)(=O)O)cc1)C(=O)NC(Cc1ccc(S(=O)(=O)O)cc1)C(=O)NC(Cc1ccc(S(=O)(=O)O)cc1)C(=O)O (centres undefined) | > 100 µM | > 100 µM | > 100 µM | > 100 µM | > 100 µM |  | > 100 µM | > 100 µM | > 100 µM |  |  |  |  | 
13 | CCN(CC)C1Oc2cc3c(cc2C(c2cccc(OC)c2OC)C1C)OCO3 (centres undefined) | 30.2 µM | 26.3 µM | > 100 µM |  | 29.5 µM |  | 21.3 µM | 25.8 µM | 24.4 µM |  |  |  |  | 3.3 µM
14 | C=C1CC[C@@H](C)[C@](C)(CCc2ccoc2)C/C=C\C=C/1C(=O)O | 43.8 µM |  | > 100 µM | > 100 µM | > 100 µM | > 100 µM | > 100 µM | > 100 µM | > 100 µM |  |  |  |  | 59.2 µM
15 | Nc1nc2c(C(=O)O)c3ccc([N+](=O)[O-])cc3c(=O)n2c2ccccc12 | 79.1 µM | 44.1 µM | 71.8 µM | > 100 µM | > 100 µM |  | > 100 µM | > 100 µM | 74.9 µM |  |  |  |  | > 100 µM
16 | O=C(O)c1ccccc1N=Nc1c(O)c(S(=O)(=O)O)cc2cc(S(=O)(=O)O)ccc12 | > 100 µM |  | > 100 µM |  | > 100 µM | > 100 µM | > 100 µM | > 100 µM | > 100 µM |  |  |  |  | > 100 µM
